The target of one experiment is T1, Aurora B (Homo sapiens, UniProt Q96GD4).
T1 construct: HT-29 cells grown in complete growth media
Kind of experiment: Aurora B cell mechanistic assay (HT-29), phospho-Histone H3 (Ser10) ELISA. It is filed as cell-based. The settings on record: HT-29 cell line; inhibition of phospho-Histone H3 (Ser10); at least duplicate experiments (italicized if single experiment); read-out: Aurora B mech IC50. In outline: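 HT-29 cells treated 1 h at 37 °C with serially diluted compound, then 100 nM Calyculin A added for 30 min. Lysates assayed by phospho-Histone H3 (Ser10) ELISA at 450 nm; normalized to DMSO (100%) and a reference Aurora B inhibitor (full inhibition); IC50 by four-parameter fit.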

In the next experiment the test system is Karpas-299 cells. In words: Karpas-299 cell proliferation assay (CellTiter-Glo). It counts as cell-based. The settings on record: Homo sapiens, 72 h; Karpas-299 cell line (NPM-ALK); 3 days incubation; at least duplicate experiments; read-out: Prolif. IC50.

Each structure is given as a SMILES string.

As usually defined, the IC50 is the concentration that gives 50% inhibition.

T1 sequence (Q96GD4 whole entry): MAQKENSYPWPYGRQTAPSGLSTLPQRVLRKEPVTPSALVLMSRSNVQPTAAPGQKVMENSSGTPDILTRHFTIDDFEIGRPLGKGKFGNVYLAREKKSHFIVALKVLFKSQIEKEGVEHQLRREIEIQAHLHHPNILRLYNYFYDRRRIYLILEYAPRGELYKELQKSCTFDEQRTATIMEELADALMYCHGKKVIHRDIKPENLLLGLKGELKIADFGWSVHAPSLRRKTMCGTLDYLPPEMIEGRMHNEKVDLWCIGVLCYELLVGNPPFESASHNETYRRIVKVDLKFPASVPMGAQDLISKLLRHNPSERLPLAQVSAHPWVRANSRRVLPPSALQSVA

For the molecule `C[C@H](c1c(OC(F)F)ccc(F)c1Cl)c1c[nH]c2ncc(-c3cnn([C@H]4CC[C@H](O)CC4)c3Cl)cc12` [Example 82, trans-4-[5-Chloro-4-(3-{(1S)-1-[2-chloro-6-(difluoromethoxy)-3-fluorophenyl]ethyl}-1H-pyrrolo[2,3-b]pyridin-5-yl)-1H-pyrazol-1-yl]cyclohexanol], the IC50 at Aurora B is above 1000 nM; in the experiment on Karpas-299 cells, 50 to 200 nM.

In the case of `C[C@H](c1c(OC(F)F)ccc(F)c1Cl)c1c[nH]c2ncc(-c3cnn([C@H]4CC[C@H](O)CC4)c3CO)cc12` [Example 83, trans-4-[4-(3-{(1S)-1-[2-Chloro-6-(difluoromethoxy)-3-fluorophenyl]ethyl}-1H-pyrrolo[2,3-b]pyridin-5-yl)-5-(hydroxymethyl)-1H-pyrazol-1-yl]cyclohexanol], the IC50 was above 1000 nM at Aurora B and 50 to 200 nM with Karpas-299 cells.

As to `C[C@H](c1c(OC(F)F)ccc(F)c1Cl)c1c[nH]c2ncc(-c3cnn([C@H]4CC[C@H](O)CC4)c3F)cc12` [Example 84, trans-4-[4-(3-{(1S)-1-[2-Chloro-6-(difluoromethoxy)-3-fluorophenyl]ethyl}-1H-pyrrolo[2,3-b]pyridin-5-yl)-5-fluoro-1H-pyrazol-1-yl]cyclohexanol], the IC50 at Aurora B lay in the range of 200 to 1000 nM; in the experiment with Karpas-299 cells, 50 to 200 nM.

As for `[2H]C([2H])([2H])c1c(-c2cnc3[nH]cc([C@H](C)c4c(OC(F)F)ccc(F)c4Cl)c3c2)cnn1[C@H]1CC[C@H](O)CC1` [Example 85, trans-4-[4-(3-{(1S)-1-[2-Chloro-6-(difluoromethoxy)-3-fluorophenyl]ethyl}-1H-pyrrolo[2,3-b]pyridin-5-yl)-5-(^2H3)methyl-1H-pyrazol-1-yl]cyclohexanol], the 50% inhibitory concentration (IC50) at Aurora B was 200 to 1000 nM; with Karpas-299 cells, at most 50 nM.

`Cc1c(-c2cnc3[nH]cc([C@H](C)c4c(O)ccc(F)c4Cl)c3c2)cnn1[C@H]1CC[C@H](O)CC1` [Example 102, 3-Chloro-4-fluoro-2-[(1S)-1-{5-[1-(trans-4-hydroxycyclohexyl)-5-methyl-1H-pyrazol-4-yl]-1H-pyrrolo[2,3-b]pyridin-3-yl}ethyl]phenol]: the figures for the IC50 on Aurora B and in the experiment on Karpas-299 cells were above 1000 nM and 50 to 200 nM, respectively.

On to `CCOc1ccc(F)c(Cl)c1[C@@H](C)c1c[nH]c2ncc(-c3cnn([C@H]4CC[C@H](O)CC4)c3C)cc12` [Example 103, trans-4-(4-{3-[(1S)-1-(2-Chloro-6-ethoxy-3-fluorophenyl)ethyl]-1H-pyrrolo[2,3-b]pyridin-5-yl}-5-methyl-1H-pyrazol-1-yl)cyclohexanol], for which the IC50 was above 1000 nM on Aurora B and at most 50 nM with Karpas-299 cells.

As to `Cc1c(-c2cnc3[nH]cc([C@H](C)c4c(OC(C)C)ccc(F)c4Cl)c3c2)cnn1[C@H]1CC[C@H](O)CC1` [Example 104, trans-4-[4-(3-{(1S)-1-[2-Chloro-3-fluoro-6-(propan-2-yloxy)phenyl]ethyl}-1H-pyrrolo[2,3-b]pyridin-5-yl)-5-methyl-1H-pyrazol-1-yl]cyclohexanol], the IC50 was 200 to 1000 nM on Aurora B and at most 50 nM in the experiment with Karpas-299 cells.

Regarding `Cc1c(-c2cnc3[nH]cc([C@H](C)c4c(OCC(F)(F)F)ccc(F)c4Cl)c3c2)cnn1[C@H]1CC[C@H](O)CC1` [Example 105, trans-4-[4-(3-{(1S)-1-[2-Chloro-3-fluoro-6-(2,2,2-trifluoroethoxy)-phenyl]ethyl}-1H-pyrrolo[2,3-b]pyridin-5-yl)-5-methyl-1H-pyrazol-1-yl]cyclohexanol], the IC50 is 50 to 200 nM at Aurora B and at most 50 nM with Karpas-299 cells.

As for `COc1cc(OC)c(Cl)c([C@@H](C)c2c[nH]c3ncc(-c4cnn([C@H]5CC[C@H](O)CC5)c4C)cc23)c1Cl` [Example 106, trans-4-(4-{3-[(1S)-1-(2,6-Dichloro-3,5-dimethoxyphenyl)ethyl]-1H-pyrrolo[2,3-b]pyridin-5-yl}-5-methyl-1H-pyrazol-1-yl)cyclohexanol], the IC50 on Aurora B is above 1000 nM; with Karpas-299 cells, 200 to 1000 nM.

For `[2H]C([2H])([2H])Oc1ccc(F)c(Cl)c1[C@@H](C)c1c[nH]c2ncc(-c3cnn([C@H]4CC[C@H](O)CC4)c3C)cc12` [Example 107, trans-4-(4-{3-[(1S)-1-{2-Chloro-3-fluoro-6-[(^2H3)methyloxy]phenyl}ethyl]-1H-pyrrolo[2,3-b]pyridin-5-yl}-5-methyl-1H-pyrazol-1-yl)cyclohexanol], the IC50 at Aurora B is above 1000 nM; with Karpas-299 cells, 50 to 200 nM.

As to `Cc1c(-c2cnc3[nH]cc(C(C#N)c4c(Cl)ccc(F)c4Cl)c3c2)cnn1[C@H]1CC[C@H](O)CC1` (stereo partly drawn) [Example 108, (2,6-Dichloro-3-fluorophenyl){5-[1-(trans-4-hydroxycyclohexyl)-5-methyl-1H-pyrazol-4-yl]-1H-pyrrolo[2,3-b]pyridin-3-yl}acetonitrile], the IC50 on Aurora B is above 1000 nM; with Karpas-299 cells it was 200 to 1000 nM.

As to `[2H][C@@](C)(c1c(OC)ccc(F)c1Cl)c1c[nH]c2ncc(-c3cnn([C@H]4CC[C@H](O)CC4)c3C)cc12` [Example 110, trans-4-(4-{3-[(1S)-1-(2-Chloro-3-fluoro-6-methoxyphenyl)(1-^2H)ethyl]-1H-pyrrolo[2,3-b]pyridin-5-yl}-5-methyl-1H-pyrazol-1-yl)cyclohexanol], the IC50 at Aurora B was above 1000 nM; in the experiment on Karpas-299 cells, at most 50 nM.

As to `[2H]C([2H])([2H])[C@H](c1c(OC)ccc(F)c1Cl)c1c[nH]c2ncc(-c3cnn([C@H]4CC[C@H](O)CC4)c3C)cc12` [Example 111, trans-4-(4-{3-[(1S)-1-(2-Chloro-3-fluoro-6-methoxyphenyl)(2,2,2-^2H3)ethyl]-1H-pyrrolo[2,3-b]pyridin-5-yl}-5-methyl-1H-pyrazol-1-yl)cyclohexanol], the IC50 is above 1000 nM on Aurora B and at most 50 nM in the experiment on Karpas-299 cells.

Values taken from US8445510B2, “Fused bicyclic kinase inhibitors” (OSI Pharmaceuticals, LLC, priority 2011, dated 2013).
